Assay results published in patent US20100242139A1, “XENOHORMESIS BASED COMPOSITIONS AND METHODS” (President and Fellows of Harvard College, priority 2006, published 2010).

Columns and labels:
MAPK2(h) = MAPK2(h) (Homo sapiens, UniProt P28482); test: kinase panel activity, MAPK2(h); type: biochemical; conditions: compound at 20 μM; vs reference with no compound
PKCγ(h) = PKCγ(h) (Homo sapiens, UniProt P05129); test: kinase panel activity, PKCγ(h); type: biochemical; conditions: compound at 20 μM; vs reference with no compound
PKCθ(h) = PKCθ(h) (Homo sapiens, UniProt Q04759); test: kinase panel activity, PKCθ(h); type: biochemical; conditions: compound at 20 μM; vs reference with no compound
PAK2(h) = PAK2(h) (Homo sapiens, UniProt Q13177); test: kinase panel activity, PAK2(h); type: biochemical; conditions: compound at 20 μM; vs reference with no compound
PAK3(h) = PAK3(h) (Homo sapiens, UniProt O75914); test: kinase panel activity, PAK3(h); type: biochemical; conditions: compound at 20 μM; vs reference with no compound
LKB1(h) = LKB1(h) (Homo sapiens, UniProt Q15831); test: kinase panel activity, LKB1(h); type: biochemical; conditions: compound at 20 μM; vs reference with no compound
PKD2(h) = PKD2(h) (Homo sapiens, UniProt Q9BZL6); test: kinase panel activity, PKD2(h); type: biochemical; conditions: compound at 20 μM; vs reference with no compound
Abl(h) = Abl(h) (Homo sapiens, UniProt P00519); test: kinase panel activity, Abl(h); type: biochemical; conditions: compound at 20 μM; vs reference with no compound
PKCδ(h) = PKCδ(h) (Homo sapiens, UniProt Q05655); test: kinase panel activity, PKCδ(h); type: biochemical; conditions: compound at 20 μM; vs reference with no compound
PKCζ(h) = PKCζ(h) (Homo sapiens, UniProt Q05513); test: kinase panel activity, PKCζ(h); type: biochemical; conditions: compound at 20 μM; vs reference with no compound
PKCβI(h) = PKCβI(h) (Homo sapiens, UniProt P05771); test: kinase panel activity, PKCβI(h); type: biochemical; conditions: compound at 20 μM; vs reference with no compound
JAK2(h) = JAK2(h) (Homo sapiens, UniProt O60674); test: kinase panel activity, JAK2(h); type: biochemical; conditions: compound at 20 μM; vs reference with no compound
SAPK3(h) = SAPK3(h) (Homo sapiens, UniProt P53778); test: kinase panel activity, SAPK3(h); type: biochemical; conditions: compound at 20 μM; vs reference with no compound
LIMK1(h) = LIMK1(h) (Homo sapiens, UniProt P53667); test: kinase panel activity, LIMK1(h); type: biochemical; conditions: compound at 20 μM; vs reference with no compound
Flt3(h) = Flt3(h) (Homo sapiens, UniProt P36888); test: kinase panel activity, Flt3(h); type: biochemical; conditions: compound at 20 μM; vs reference with no compound
Abl(T315I)(h) = Abl(T315I)(h) (Homo sapiens, UniProt P00519, T315I); test: kinase panel activity, Abl(T315I)(h); type: biochemical; conditions: compound at 20 μM; vs reference with no compound
SGK(h) = SGK(h) (Homo sapiens, UniProt O00141); test: kinase panel activity, SGK(h); type: biochemical; conditions: compound at 20 μM; vs reference with no compound
FL5.12 cells = test: growth of hematopoietic cell line FL5.12; type: cell-based; conditions: 0.1, 1, 10 and 100 μM for 24 hours; in the presence of IL-3; Coulter counter
Excerpt: Hematopoietic cell line FL5.12 cells were seed at equal density and grown in the presence of IL-3, a growth factor.

IRS-1 = IRS-1 expression and phosphorylation on a high calorie diet; type: in vivo
Excerpt: In addition, IRS-1 is phosphorylated at serine 307 (referred to PIRS-1).

Chain of MAPK2(h) (P28482 whole entry): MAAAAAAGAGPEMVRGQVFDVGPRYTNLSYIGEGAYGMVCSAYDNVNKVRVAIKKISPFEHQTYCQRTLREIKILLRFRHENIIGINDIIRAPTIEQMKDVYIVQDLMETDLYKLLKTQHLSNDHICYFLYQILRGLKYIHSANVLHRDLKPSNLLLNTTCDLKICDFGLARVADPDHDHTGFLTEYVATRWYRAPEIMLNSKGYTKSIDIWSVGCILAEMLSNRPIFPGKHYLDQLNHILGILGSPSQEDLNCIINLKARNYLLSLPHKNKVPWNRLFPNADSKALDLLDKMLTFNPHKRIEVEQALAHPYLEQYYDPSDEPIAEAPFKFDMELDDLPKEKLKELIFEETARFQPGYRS
Chain of LKB1(h) (Q15831 whole entry): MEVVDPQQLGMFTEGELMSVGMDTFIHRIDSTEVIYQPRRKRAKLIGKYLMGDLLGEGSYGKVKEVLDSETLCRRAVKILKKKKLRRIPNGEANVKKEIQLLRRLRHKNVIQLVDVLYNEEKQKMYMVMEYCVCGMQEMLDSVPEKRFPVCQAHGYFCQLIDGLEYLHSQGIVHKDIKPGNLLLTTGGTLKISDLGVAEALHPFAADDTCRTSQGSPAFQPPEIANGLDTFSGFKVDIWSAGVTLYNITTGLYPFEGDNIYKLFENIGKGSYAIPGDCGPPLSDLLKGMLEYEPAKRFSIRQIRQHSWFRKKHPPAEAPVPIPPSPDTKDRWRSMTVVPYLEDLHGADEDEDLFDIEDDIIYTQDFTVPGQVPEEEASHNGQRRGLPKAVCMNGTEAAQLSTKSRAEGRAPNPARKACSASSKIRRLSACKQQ
Chain of LKB1(h) (Q7RTN6 whole entry partner): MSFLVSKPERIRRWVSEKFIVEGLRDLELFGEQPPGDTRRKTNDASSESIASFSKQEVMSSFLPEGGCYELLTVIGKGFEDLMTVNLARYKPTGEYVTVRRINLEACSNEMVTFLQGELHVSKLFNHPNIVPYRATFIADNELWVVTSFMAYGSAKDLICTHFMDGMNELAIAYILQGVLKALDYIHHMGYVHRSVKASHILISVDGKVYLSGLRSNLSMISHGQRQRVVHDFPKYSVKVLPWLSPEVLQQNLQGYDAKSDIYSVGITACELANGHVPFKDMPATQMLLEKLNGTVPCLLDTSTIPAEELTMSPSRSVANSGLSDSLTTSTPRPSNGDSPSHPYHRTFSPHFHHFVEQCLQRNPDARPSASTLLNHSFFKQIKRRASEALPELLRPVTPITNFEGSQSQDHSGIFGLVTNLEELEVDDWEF
Chain of LKB1(h) (Q9Y376 whole entry partner): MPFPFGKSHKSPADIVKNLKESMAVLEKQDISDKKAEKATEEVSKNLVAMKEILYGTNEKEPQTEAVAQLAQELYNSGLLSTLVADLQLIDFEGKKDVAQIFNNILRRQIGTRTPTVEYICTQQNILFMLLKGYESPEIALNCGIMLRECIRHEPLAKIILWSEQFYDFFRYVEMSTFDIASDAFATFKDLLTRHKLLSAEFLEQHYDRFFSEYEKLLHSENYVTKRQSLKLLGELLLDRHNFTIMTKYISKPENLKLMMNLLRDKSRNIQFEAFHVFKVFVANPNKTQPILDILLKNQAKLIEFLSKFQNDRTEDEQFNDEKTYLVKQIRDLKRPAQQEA
Chain of SGK(h) (O00141 whole entry): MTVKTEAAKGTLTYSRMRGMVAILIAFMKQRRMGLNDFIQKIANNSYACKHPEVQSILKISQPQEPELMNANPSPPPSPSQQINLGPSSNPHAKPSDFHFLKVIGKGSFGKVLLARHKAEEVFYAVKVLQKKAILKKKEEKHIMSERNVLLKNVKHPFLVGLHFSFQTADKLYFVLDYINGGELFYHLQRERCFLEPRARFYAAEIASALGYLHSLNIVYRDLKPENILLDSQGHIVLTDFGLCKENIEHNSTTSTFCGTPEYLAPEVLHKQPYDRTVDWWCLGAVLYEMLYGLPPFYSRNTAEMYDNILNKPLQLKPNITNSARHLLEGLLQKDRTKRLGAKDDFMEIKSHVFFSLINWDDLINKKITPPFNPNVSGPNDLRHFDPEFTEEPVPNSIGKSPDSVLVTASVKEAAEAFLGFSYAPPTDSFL
Chain of LIMK1(h) (P53667 whole entry): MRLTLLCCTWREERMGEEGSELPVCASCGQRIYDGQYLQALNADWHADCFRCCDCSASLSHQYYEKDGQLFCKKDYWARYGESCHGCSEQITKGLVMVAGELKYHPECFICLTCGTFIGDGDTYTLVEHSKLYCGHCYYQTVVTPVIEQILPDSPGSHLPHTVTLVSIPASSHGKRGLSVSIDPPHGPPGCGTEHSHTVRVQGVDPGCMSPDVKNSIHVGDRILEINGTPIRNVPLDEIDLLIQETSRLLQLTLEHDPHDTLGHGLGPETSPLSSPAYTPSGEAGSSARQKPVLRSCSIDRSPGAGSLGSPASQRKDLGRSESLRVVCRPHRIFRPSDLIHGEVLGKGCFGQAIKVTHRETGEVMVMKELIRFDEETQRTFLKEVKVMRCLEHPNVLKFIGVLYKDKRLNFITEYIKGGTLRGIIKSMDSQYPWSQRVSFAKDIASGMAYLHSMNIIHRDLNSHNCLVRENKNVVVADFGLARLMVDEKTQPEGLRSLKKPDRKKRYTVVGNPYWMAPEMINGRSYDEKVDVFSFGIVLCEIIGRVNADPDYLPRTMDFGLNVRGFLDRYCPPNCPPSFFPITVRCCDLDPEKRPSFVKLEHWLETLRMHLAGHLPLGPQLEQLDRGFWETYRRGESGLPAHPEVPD
Chain of SAPK3(h) (P53778 whole entry): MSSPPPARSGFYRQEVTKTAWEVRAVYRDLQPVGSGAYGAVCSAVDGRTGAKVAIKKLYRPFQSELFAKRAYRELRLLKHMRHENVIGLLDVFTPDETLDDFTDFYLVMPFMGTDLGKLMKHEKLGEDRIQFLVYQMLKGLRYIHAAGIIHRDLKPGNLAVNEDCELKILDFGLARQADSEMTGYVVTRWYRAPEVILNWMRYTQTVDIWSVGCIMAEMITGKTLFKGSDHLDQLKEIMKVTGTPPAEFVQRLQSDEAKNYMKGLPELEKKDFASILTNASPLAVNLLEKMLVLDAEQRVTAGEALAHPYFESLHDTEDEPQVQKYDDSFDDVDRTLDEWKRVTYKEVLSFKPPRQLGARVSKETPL
Chain of PAK2(h) (Q13177 whole entry): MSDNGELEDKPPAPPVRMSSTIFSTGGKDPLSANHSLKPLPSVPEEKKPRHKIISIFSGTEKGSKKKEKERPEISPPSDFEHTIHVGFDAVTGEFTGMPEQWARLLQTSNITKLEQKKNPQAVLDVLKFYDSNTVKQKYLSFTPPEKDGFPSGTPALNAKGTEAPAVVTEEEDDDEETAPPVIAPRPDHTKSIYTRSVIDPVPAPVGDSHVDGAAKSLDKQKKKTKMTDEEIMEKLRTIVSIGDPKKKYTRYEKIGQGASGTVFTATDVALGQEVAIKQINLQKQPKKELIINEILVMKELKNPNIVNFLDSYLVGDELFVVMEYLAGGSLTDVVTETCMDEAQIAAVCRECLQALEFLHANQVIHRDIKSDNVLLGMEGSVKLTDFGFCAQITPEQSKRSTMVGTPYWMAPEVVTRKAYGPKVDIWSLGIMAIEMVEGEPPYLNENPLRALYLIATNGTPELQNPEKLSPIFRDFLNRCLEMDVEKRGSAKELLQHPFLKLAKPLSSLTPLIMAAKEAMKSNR
Chain of PAK3(h) (O75914 whole entry): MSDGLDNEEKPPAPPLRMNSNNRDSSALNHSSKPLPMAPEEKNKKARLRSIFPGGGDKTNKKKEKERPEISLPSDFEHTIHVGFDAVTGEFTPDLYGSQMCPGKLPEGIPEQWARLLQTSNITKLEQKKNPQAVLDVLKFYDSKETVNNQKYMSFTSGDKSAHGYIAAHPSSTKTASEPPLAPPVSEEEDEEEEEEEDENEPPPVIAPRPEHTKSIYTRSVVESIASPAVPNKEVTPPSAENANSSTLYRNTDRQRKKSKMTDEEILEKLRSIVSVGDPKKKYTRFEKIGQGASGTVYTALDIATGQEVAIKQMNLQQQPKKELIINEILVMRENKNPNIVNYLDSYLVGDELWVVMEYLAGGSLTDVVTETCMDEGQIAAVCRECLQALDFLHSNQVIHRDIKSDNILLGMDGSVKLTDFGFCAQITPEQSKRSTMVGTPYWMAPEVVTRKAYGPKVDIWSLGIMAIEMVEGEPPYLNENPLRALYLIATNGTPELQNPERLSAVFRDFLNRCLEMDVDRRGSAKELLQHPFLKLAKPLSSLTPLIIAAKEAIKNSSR
Chain of PKCζ(h) (Q05513 whole entry): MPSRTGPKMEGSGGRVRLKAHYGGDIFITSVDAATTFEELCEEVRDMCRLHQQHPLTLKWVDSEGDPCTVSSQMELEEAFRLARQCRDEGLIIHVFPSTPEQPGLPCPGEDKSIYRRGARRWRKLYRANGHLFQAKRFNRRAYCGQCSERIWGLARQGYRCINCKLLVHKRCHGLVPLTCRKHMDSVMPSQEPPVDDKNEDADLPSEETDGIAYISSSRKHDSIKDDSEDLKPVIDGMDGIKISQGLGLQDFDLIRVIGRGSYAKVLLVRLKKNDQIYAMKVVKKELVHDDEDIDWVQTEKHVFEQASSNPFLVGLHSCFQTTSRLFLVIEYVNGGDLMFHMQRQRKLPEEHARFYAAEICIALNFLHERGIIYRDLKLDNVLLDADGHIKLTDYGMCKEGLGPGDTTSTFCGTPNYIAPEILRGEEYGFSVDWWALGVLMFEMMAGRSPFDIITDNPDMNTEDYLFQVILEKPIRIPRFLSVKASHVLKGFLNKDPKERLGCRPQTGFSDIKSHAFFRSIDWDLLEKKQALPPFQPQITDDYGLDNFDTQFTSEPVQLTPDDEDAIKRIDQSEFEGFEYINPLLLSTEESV

Row | SMILES | percent activity of MAPK2(h) (MAPK2(h)) [%] | percent activity of PKCγ(h) (PKCγ(h)) [%] | percent activity of PKCθ(h) (PKCθ(h)) [%] | percent activity of PAK2(h) (PAK2(h)) [%] | percent activity of PAK3(h) (PAK3(h)) [%] | percent activity of LKB1(h) (LKB1(h)) [%] | percent activity of PKD2(h) (PKD2(h)) [%] | percent activity of Abl(h) (Abl(h)) [%] | percent activity of PKCδ(h) (PKCδ(h)) [%] | percent activity of PKCζ(h) (PKCζ(h)) [%] | percent activity of PKCβI(h) (PKCβI(h)) [%] | percent activity of JAK2(h) (JAK2(h)) [%] | percent activity of SAPK3(h) (SAPK3(h)) [%] | percent activity of LIMK1(h) (LIMK1(h)) [%] | percent activity of Flt3(h) (Flt3(h)) [%] | percent activity of Abl(T315I)(h) (Abl(T315I)(h)) [%] | percent activity of SGK(h) (SGK(h)) [%] | inhibition of FL5.12 cell growth (FL5.12 cells) | expression level of IRS-1 (IRS-1; approximately 22 mg/kg resveratrol added to diet) | proportion of phosphorylated IRS-1 (PIRS-1, serine 307) (IRS-1; resveratrol treatment)
1 | O=C(O)[C@H]1O[C@@H](Oc2ccc(/C=C/c3cc(O)cc(O)c3)cc2)[C@H](O)[C@@H](O)[C@@H]1O [Res 4′-Gluc, resveratrol-4-glucuronide] | 105 | 77 | 103 | 105 | 75 | 95 | 113 | 97 | 110 | 104 | 119 | 95 | 106 | 91 | 48 | 93 | 48 |  |  | 
2 | Oc1ccc(C=Cc2cc(O)cc(O)c2)cc1 [resveratrol, 3,5,4′-trihydroxystilbene] | 101 |  |  |  |  | 102 |  |  |  |  |  |  | 110 | 84 |  |  | 86 | dose dependent inhibition | significantly reduced | increases
